AC50, EC50 and IC50 data for 32 compounds are collected here from ChEMBL document CHEMBL1201862, “PubChem BioAssay data set” (2004).

SMILES strings stand for the structures. Activity calls are given as the source filed them.

Test [1] concerns INS1. In words: INS-1E survival protection against cytokine death – cell-based, luminescence, retest, dose response (AID 449756).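 Also: cell death triggered by IL-1 beta plus TNF-alpha plus IFN-gamma mixture; protective hits raise ATP signal compared with cytokine alone wells.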 The format is functional. Particulars: Rattus norvegicus.
The target of test [2] is T1, Streptokinase A (Streptococcus pyogenes serotype M1, UniProt P10520).
T1 sequence (P10520 whole entry): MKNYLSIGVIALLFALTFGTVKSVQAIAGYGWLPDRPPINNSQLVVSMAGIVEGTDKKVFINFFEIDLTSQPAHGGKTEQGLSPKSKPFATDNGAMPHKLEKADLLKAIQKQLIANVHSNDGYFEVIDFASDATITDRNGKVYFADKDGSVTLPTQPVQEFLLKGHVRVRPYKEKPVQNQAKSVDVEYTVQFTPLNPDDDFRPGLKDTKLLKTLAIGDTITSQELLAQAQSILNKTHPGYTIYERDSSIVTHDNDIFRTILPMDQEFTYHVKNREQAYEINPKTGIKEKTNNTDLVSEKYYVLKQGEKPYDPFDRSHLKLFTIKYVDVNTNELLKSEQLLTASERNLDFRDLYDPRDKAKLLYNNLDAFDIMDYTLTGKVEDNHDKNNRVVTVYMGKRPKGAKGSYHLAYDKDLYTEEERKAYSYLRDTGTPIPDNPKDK
Nature of the test: viability-normalized secreted streptokinase activity reduction – plasminogen activation absorbance, OD405, dose response (AID 1914).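 Also: secreted streptokinase activity via plasminogen activation per viability signal from cell pellet.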 The format is functional, Streptococcus pyogenes M1 GAS.

Test [3] deals with Streptococcus sp. 'group A'. In words: Streptococcus pyogenes SK(-)GAS viability under kanamycin – luminescence, BacTiterGlo, confirmation, counter-screen for streptokinase expression inhibitor project, dose response (AID 1900). In kind it is functional, organism-based. On the technique in general: The purpose of a counterscreen is to sort out artefacts and off-target activity.

In test [4] the test system is Streptococcus. In words: GAS UMAA2166 growth inhibition – luminescence, BacTiterGlo, counter-screen for streptokinase expression inhibitor project, dose response (AID 1915).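 Also: potency for reduction of bacterial viability or growth.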 The format is functional, organism-based.
Test [5] can be described thus: Luminescence Cell-Based Dose Retest to Confirm Inhibitors of Cancer Stem Cells. [Related pubchem assays (depositor defined):AID2717, AID2721]. The format is functional. As to conditions: Homo sapiens.
A short description of test [6]: cells. The format is functional.
The target in test [7] is T2, Protein skinhead-1 (Caenorhabditis elegans, UniProt P34707).
T2 sequence (P34707 whole entry): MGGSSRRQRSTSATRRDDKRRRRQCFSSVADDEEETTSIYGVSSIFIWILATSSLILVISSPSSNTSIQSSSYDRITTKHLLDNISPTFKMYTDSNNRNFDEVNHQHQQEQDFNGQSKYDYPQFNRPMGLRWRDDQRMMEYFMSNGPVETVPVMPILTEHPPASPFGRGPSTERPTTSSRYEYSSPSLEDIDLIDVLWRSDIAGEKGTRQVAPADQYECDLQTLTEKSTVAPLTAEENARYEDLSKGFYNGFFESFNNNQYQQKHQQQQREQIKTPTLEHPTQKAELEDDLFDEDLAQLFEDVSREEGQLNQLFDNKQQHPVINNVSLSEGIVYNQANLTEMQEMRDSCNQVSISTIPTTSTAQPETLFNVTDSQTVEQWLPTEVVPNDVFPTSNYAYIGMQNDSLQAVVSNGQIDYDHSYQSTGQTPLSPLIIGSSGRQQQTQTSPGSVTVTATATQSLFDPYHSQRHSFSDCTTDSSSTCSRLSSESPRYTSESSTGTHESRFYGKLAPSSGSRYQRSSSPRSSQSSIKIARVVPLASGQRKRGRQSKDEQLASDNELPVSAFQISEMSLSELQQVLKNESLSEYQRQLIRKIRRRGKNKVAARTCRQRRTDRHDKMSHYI
In kind it is functional.

The target in test [8] is Cytochrome P450 3A4 (Homo sapiens, UniProt P08684).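 Also: CYP3A4 tested as one member of a cytochrome P450 panel screen.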
Sequence of Cytochrome P450 3A4 (P08684 whole entry): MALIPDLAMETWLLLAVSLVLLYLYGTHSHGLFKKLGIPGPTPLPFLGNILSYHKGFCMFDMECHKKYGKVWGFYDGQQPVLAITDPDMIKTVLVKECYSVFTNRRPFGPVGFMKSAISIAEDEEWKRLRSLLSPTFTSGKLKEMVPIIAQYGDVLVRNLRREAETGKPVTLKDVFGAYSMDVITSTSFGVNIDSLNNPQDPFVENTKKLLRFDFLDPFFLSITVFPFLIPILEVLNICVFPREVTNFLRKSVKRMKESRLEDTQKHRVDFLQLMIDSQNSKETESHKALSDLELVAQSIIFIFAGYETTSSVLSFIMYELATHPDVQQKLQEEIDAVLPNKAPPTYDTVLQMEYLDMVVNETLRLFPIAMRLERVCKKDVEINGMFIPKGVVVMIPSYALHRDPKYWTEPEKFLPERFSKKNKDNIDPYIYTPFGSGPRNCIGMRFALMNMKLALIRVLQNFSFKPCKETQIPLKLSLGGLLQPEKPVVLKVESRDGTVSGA
For test [9], the target named is T3, Cytochrome P450 1A2 (Homo sapiens, UniProt P05177).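 Also: PubChem cytochrome P450 panel assay, CYP1A2 panel member.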
T3 sequence (P05177 whole entry): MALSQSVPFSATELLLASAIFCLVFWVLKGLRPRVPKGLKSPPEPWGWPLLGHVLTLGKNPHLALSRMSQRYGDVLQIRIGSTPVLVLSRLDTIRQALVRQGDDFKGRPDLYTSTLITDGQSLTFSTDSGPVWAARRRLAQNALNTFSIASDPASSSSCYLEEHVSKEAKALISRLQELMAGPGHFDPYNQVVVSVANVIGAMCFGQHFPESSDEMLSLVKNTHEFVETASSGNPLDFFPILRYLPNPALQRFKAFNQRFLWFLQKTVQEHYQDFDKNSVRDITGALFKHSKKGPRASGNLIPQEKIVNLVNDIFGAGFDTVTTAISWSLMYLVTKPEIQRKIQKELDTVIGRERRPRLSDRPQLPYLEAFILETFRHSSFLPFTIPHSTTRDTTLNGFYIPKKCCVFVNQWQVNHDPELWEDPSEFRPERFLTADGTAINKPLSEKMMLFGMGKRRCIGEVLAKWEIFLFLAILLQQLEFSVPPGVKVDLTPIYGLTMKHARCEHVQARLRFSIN

Test [10] addresses Cytochrome P450 2D6 (Homo sapiens, UniProt P10635).

Sequence of Cytochrome P450 2D6 (P10635 whole entry): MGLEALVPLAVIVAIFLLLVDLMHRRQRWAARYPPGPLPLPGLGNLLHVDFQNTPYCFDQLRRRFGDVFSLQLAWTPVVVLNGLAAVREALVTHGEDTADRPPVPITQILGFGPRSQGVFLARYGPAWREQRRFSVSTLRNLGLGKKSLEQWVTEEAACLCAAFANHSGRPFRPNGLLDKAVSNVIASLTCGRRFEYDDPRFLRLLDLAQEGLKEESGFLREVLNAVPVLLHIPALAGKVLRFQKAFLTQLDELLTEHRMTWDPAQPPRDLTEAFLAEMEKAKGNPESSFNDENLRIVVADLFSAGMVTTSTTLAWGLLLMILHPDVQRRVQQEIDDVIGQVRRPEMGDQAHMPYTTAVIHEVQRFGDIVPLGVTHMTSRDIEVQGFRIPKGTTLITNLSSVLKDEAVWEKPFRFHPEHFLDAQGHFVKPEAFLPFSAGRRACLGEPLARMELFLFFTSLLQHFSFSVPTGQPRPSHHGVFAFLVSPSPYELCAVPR

Take `O=C(NCc1ccccc1)C1=C[C@@H](c2csc3ccccc23)C[C@@H](OCc2ccc(CO)cc2)O1`: in [1], the AC50 was 2.88 µM (active).

With `Fc1ccc(Cn2cccc2C2=NC(c3ccccc3)CO2)cc1` (centres undefined), the EC50 in test [2] is 23.8 µM (active); in [3], 16 µM (active); in test [4], > 150 µM (not active).

With `COc1ccc(C(=O)c2ccc(OC)cc2OC)cc1`, in [5], the AC50 was 13.6 µM (active).

As for `COc1ccc(NC(=O)c2cc3ccccc3o2)cc1`, in test [6], the IC50 is > 50 µM (active).

Take `Cc1ccccc1C(=O)Nc1scc(-c2ccc(Br)cc2)c1C(=O)O`: the EC50 in [2] was > 150 µM (not active); in test [3] it was 3.46 µM (active); in test [4], 7.36 µM (active).

Take `COC(=O)c1cc(NC(=O)c2cc(-c3ccccc3Cl)oc2C(F)(F)F)ccc1N1CCOCC1`: the AC50 in test [5] was 4.57 µM (active).

On to `CC(=O)c1c(C)[nH]c(C(=O)CN2CCN(S(=O)(=O)c3ccccc3)CC2)c1C`, for which the AC50 in [1] is > 260 µM (inactive).

Turning to `C[C@@H]1O[C@@H](O[C@H]2C[C@@H](O)[C@]3(CO)[C@H]4[C@H](O)C[C@]5(C)[C@@H](C6=CC(=O)OC6)CC[C@]5(O)[C@@H]4CC[C@]3(O)C2)[C@H](O)[C@H](O)[C@H]1O`, the AC50 in test [5] was < 0.16 µM (active).

As to `O=[N+]([O-])c1ccc(Nc2nccc(Cl)n2)cc1`, the IC50 in test [7] was > 100 µM (inactive).

In the case of `COc1ccc(-c2cccc([C@H]3[C@@H]4C=CCC[C@@]4(C)C(=O)N3Cc3ccccc3)c2)cc1`, the AC50 in test [5] was 5.36 µM (active).

For `CCc1ccccc1NC(=O)NNS(=O)(=O)c1cc(C)ccc1C`, the EC50 in test [2] is 4.21 µM (active); in [3] it was > 150 µM (not active); in test [4], > 150 µM (not active).

In the case of `CSc1cccc(-c2nnc(NC(=O)c3cccc(N4C(=O)CCC4=O)c3)o2)c1`, the figures for the EC50 in [2], in [3] and in test [4] were > 150 µM (not active), 4.88 µM (active) and 131 µM (active), respectively.

With `CCn1c(C)c(C)c2cc(C(=O)N3CCN(c4ccccc4)CC3)ccc21`, the IC50 in test [7] is > 100 µM (inactive).

Take `COC(=O)COc1ccc(-c2ccccc2)cc1C=O`: the IC50 in test [6] was 12.1 µM (active).

On to `O=C(OCn1nnc2ccccc2c1=O)c1ccc(Br)o1`, for which the IC50 in test [6] is 18.6 µM (active).

As for `CN(CC(=O)Nc1cccc(F)c1)C(=O)CC1CC2CCC1C2` (centres undefined), the IC50 in test [7] is > 100 µM (inactive).

Regarding `CC(C)Nc1nc(NC(C)C)nc(N(C)N)n1`, the results for the EC50 in [2], in test [3] and in test [4] were > 150 µM (not active), 32.9 µM (active) and > 150 µM (not active), respectively.

For the compound `Ic1ccccc1CN[C@@H]1C2CCN(CC2)[C@H]1C(c1ccccc1)c1ccccc1`, the figures for the concentration at half-maximal activity (AC50) in test [8] and in [9] were 20 µM (inconclusive) and 12.6 µM (inconclusive), respectively.

Regarding `COC(=O)c1c2c(nc3ccccc13)CCC2`, the IC50 in test [7] was > 100 µM (inactive).

On to `COC(=O)c1cc(-c2cccc(OC)c2)c2c(=O)[nH]c(=O)n(C)c2n1`, for which the values for the EC50 in test [2], in [3] and in test [4] were > 150 µM (not active), 6.29 µM (active) and 11.7 µM (active), respectively.

With `O=C(NC(=S)N(Cc1ccccc1)Cc1ccccc1)c1ccccc1F`, the EC50 in test [2] was > 150 µM (not active); in test [3], 1.08 µM (active); in test [4], 9.16 µM (active). Also, the AC50 in test [10] is 0.2 µM (inconclusive).

For `COc1ccc(Oc2ncc3nc(-c4ccc(OC)cc4)c(=O)n(C)c3n2)cc1`, the results for the AC50 in [8] and in test [9] were 3.98 µM (inconclusive) and 3.16 µM (inconclusive), respectively.

Turning to `c1nc2n(n1)C1=C(CCCC1)C1(CCCCC1)N2`, the IC50 in test [6] is 10.1 µM (active).

`Cc1ccc(OCCSc2nc(NC(C)C)nc(NC(C)C)n2)cc1`: the AC50 in [5] is 1.11 µM (active). Besides, the figures for the EC50 in test [2], in [3] and in test [4] were 13.9 µM (active), 6.42 µM (active) and 34.2 µM (active), respectively.

As for `Cc1ccn2c(NC3CCCCC3)c(-c3cccc(SC4CCCCC4)c3)nc2c1`, the AC50 in [5] is 2.65 µM (active).

With `Cc1ccc(-c2nnn(CC(=O)NCC3COCCO3)n2)o1` (centres undefined), the IC50 in test [7] was > 100 µM (inactive).

Turning to `C=CC[C@@H](CC(=O)N(CCO)Cc1ccccc1)C(=O)N[C@H](COC(=O)[C@@H](CC=C)CC(=O)OC(C)(C)C)c1ccccc1`, the AC50 in [1] is > 260 µM (inactive).

Turning to `CC(C)c1ccc(NC(=O)C(c2ccccc2)N(C)C(=O)CCc2c[nH]c3ccccc23)cc1` (centres undefined), in test [5], the AC50 was 4 µM (active).

`O=C(C=Cc1ccco1)c1ccc2ccccc2c1`: the IC50 in test [7] is 9.38 µM (active).

Consider `CCCOc1ccc(OCCSc2ncccn2)cc1`, for which the IC50 in test [7] was 82.8 µM (inactive).

With `CCOC(=O)c1cnn(-c2nc(-c3ccccc3F)cs2)c1C(F)(F)F`, the EC50 in test [2] was 34.3 µM (active); in [3] it was 17.9 µM (active); in test [4], 23.8 µM (active).

`CC(=O)Nc1ccc(SCC(=O)c2cc(C)n(-c3ccccc3)c2C)cc1`: in [5], the AC50 was 6.41 µM (active).

The AC50 is the concentration at which the activity in the assay is half-maximal. By EC50 is commonly meant the midpoint of the concentration-response curve. In general, IC50 refers to the midpoint of a concentration-inhibition curve.
